# Tests used:
# Assay type in all cases: cell-based
# ΔF508-CFTR [1] = biological target: T1, ΔF508-CFTR (Homo sapiens, UniProt P13569, DEL508-508); assay: CFTR cell surface levels using HRP-tagged ΔF508-CFTR expressing CFBE cells, in the presence of a co-corrector; settings: HRP-tagged ΔF508-CFTR CFBE cells, in the presence of 3 μM co-corrector; for EC50: read-out: EC50
# T1 construct: host or cells: CFBE41o-, doxycycline-inducible
# Outline: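 Chemiluminescent read-out of surface HRP (15 min, dark) after PBS washes. Activity is normalized as 100×(sample−DMSO)/(3 μM co-corrector alone−DMSO).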
# ΔF508-CFTR [2] = biological target: T1, ΔF508-CFTR; assay: CFTR cell surface levels using HRP-tagged ΔF508-CFTR expressing CFBE cells, intrinsic corrector capacity; parameters: % Activation: concentration or dose not given beside the values; settings: HRP-tagged ΔF508-CFTR expressing CFBE41o- cells, compound alone (intrinsic corrector capacity), 20 hours at 33° C.; for EC50: read-out: EC50
# Outline: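 Read-out: chemiluminescent HRP activity of ECL4-HRP-tagged ΔF508-CFTR at the cell surface, 15 min substrate in dark. Normalized as 100×(sample−DMSO)/(positive control−DMSO).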
# CFTR ΔF508 = biological target: T2, CFTR ΔF508 (Homo sapiens, UniProt P13569, DEL508-508); assay: Chronic TECC assay, primary bronchial epithelial cells of CF patients homozygous for CFTR ΔF508 (corrector, co-corrector and potentiator); settings: chronic TECC, AUC = full area under the curve upon forskolin stimulation; for % Activity at 1 μM (AUC**): test compound at 1 μM; for EC50: read-out: EC50 (nM) (AUC**)
# T2 construct: bronchial epithelial cells isolated from CF patients homozygous for the CFTR ΔF508 mutation; McGill University; Asterand; University of North Carolina hAEC-CF; host or cells: primary human bronchial epithelial cells from CF patients homozygous for ΔF508, differentiated at air-liquid interface
# T2 sequence (P13569 with tags, fused parts or gaps DEL508-508): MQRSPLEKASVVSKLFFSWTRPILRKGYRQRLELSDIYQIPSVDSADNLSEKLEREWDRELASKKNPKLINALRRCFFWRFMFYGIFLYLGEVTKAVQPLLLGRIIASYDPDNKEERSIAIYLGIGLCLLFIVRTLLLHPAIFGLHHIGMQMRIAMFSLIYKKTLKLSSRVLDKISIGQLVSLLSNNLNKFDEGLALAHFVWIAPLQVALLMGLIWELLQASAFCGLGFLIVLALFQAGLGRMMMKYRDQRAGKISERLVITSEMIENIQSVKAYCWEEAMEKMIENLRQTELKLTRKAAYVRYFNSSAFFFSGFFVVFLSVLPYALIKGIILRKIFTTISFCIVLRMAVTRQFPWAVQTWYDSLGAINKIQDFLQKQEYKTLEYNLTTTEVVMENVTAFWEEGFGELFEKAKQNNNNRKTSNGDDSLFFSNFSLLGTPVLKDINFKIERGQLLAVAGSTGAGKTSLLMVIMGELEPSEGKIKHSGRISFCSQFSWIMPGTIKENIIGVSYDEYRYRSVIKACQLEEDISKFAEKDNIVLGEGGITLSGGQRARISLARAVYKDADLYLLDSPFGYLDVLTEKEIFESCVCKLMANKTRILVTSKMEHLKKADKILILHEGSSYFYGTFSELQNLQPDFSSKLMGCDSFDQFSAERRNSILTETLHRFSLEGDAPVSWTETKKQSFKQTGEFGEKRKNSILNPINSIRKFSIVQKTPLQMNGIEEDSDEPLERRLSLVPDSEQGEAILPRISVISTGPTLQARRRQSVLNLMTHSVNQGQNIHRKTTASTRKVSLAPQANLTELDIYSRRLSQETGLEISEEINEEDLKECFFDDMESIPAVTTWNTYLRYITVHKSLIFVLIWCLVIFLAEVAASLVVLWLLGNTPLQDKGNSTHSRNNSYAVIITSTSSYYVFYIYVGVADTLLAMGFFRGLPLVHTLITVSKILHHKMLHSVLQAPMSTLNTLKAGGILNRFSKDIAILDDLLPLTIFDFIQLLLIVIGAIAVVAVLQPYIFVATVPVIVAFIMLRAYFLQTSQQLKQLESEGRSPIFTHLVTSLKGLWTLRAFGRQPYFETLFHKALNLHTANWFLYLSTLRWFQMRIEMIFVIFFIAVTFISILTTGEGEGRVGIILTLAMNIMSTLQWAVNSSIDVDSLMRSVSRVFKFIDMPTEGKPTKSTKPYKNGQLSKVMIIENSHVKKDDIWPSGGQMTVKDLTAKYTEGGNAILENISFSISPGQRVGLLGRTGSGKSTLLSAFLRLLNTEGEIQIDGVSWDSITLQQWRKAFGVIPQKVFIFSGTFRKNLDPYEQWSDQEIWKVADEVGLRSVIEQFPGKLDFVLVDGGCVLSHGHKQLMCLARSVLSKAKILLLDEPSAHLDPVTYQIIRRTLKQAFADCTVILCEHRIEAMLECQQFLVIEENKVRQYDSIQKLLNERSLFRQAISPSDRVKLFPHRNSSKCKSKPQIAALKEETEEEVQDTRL
# Outline: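 Primary bronchial epithelial cells from ΔF508-homozygous CF patients on collagen IV-coated Transwells were chronically treated with test compound plus corrector and potentiator, which were re-added before recording. Ieq was derived from PD and Rt in NaCl-Ringer, pH 7.4, at 37° C, with apical amiloride and bilateral forskolin, recorded every 2 min over 20 min. Ieq increase was normalized to controls, and EC50 was taken from per-well concentrations.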
# T1 sequence (P13569 with tags, fused parts or gaps DEL508-508): as above
SMILES,% Activation (ΔF508-CFTR [1]) [%],EC50 (ΔF508-CFTR [1]) [nM],% Activation (ΔF508-CFTR [2]) [%],EC50 (ΔF508-CFTR [2]) [nM],% Activity at 1 μM (AUC**) (CFTR ΔF508) [%],EC50 (CFTR ΔF508) [nM],% Activity at 3 μM (AUC**) (CFTR ΔF508; test compound at 3 μM) [%]
"CC(C)Oc1nn(C2CCCCC2)c2nc(C(=O)NS(C)(=O)=O)cc(-c3ccc(CN4CCOCC4)cc3)c12 [Compound 404, 1-cyclohexyl-N-(methanesulfonyl)-4-{4-[(morpholin-4-yl)methyl]phenyl}-3-[(propan-2-yl)oxy]-1H-pyrazolo[3,4-b]pyridine-6-carboxamide]",370,126,181.2,186,433.3333,,
"COCCS(=O)(=O)NC(=O)c1cc(-c2ccc(CN3CCOCC3)cc2)c2c(OC(C)C)nn(C3CCCCC3)c2n1 [Compound 405, 1-cyclohexyl-N-(2-methoxyethanesulfonyl)-4-{4-[(morpholin-4-yl)methyl]phenyl}-3-[(propan-2-yl)oxy]-1H-pyrazolo[3,4-b]pyridine-6-carboxamide]",326.9,102,160.8,191,323.3333,,
"CC(C)Oc1nn(C2CCCCC2)c2nc(C(=O)NS(=O)(=O)N(C)C)cc(-c3ccc(CN4CCOCC4)cc3)c12 [Compound 406, 1-cyclohexyl-N-(dimethylsulfamoyl)-4-{4-[(morpholin-4-yl)methyl]phenyl}-3-[(propan-2-yl)oxy]-1H-pyrazolo[3,4-b]pyridine-6-carboxamide]",311.35,182,125.95,241,235,,
"COCCS(=O)(=O)NC(=O)c1cc(N2CCC(N3CCOCC3)CC2)c2c(C3CCC3)nn(-c3ccc(F)cc3)c2n1 [Compound 407, 3-cyclobutyl-1-(4-fluorophenyl)-N-(2-methoxyethanesulfonyl)-4-[4-(morpholin-4-yl)piperidin-1-yl]-1H-pyrazolo[3,4-b]pyridine-6-carboxamide]",494.15,124,331.45,497,310,48.9,
"CN(C)S(=O)(=O)NC(=O)c1cc(N2CCC(CN3CCOCC3)CC2)c2c(C3CCC3)nn(-c3ccc(F)cc3)c2n1 [Compound 409, 3-cyclobutyl-N-(dimethylsulfamoyl)-1-(4-fluorophenyl)-4-{4-[(morpholin-4-yl)methyl]piperidin-1-yl}-1H-pyrazolo[3,4-b]pyridine-6-carboxamide]",481.1,108,245.4,155,420,150,
"CS(=O)(=O)NC(=O)c1cc(N2CCC(CN3CCOCC3)CC2)c2c(C3CCC3)nn(-c3ccc(F)cc3)c2n1 [Compound 410, 3-cyclobutyl-1-(4-fluorophenyl)-N-(methanesulfonyl)-4-{4-[(morpholin-4-yl)methyl]piperidin-1-yl}-1H-pyrazolo[3,4-b]pyridine-6-carboxamide]",529.58,82.4,337.42,213,233.3333,1.58,
"COCCS(=O)(=O)NC(=O)c1cc(N2CCC(CCN3CCOCC3)CC2)c2c(C3CCC3)nn(-c3ccc(F)cc3)c2n1 [Compound 415, 3-cyclobutyl-1-(4-fluorophenyl)-N-(2-methoxyethanesulfonyl)-4-{4-[2-(morpholin-4-yl)ethyl]piperidin-1-yl}-1H-pyrazolo[3,4-b]pyridine-6-carboxamide]",598,69.3,365.4,165,196.1812,28.4,
"CN(C)S(=O)(=O)NC(=O)c1cc(N2CCC(CCN3CCOCC3)CC2)c2c(C3CCC3)nn(-c3ccc(F)cc3)c2n1 [Compound 416, 3-cyclobutyl-N-(dimethylsulfamoyl)-1-(4-fluorophenyl)-4-{4-[2-(morpholin-4-yl)ethyl]piperidin-1-yl}-1H-pyrazolo[3,4-b]pyridine-6-carboxamide]",458.65,65,288,142,288.6036,119,
"COCC1CCN(c2cc(C(=O)NS(=O)(=O)CC3COCCO3)nc3c2c(C2CCC2)nn3-c2ccccc2)CC1 (centres unmarked) [Compound 417, 3-cyclobutyl-N-[(1,4-dioxan-2-yl)methanesulfonyl]-4-[4-(methoxymethyl)piperidin-1-yl]-1-phenyl-1H-pyrazolo[3,4-b]pyridine-6-carboxamide]",539.75,91.9,307.45,190,256.6667,,
"CS(=O)(=O)NC(=O)c1cc(N2CCC(N3CCOCC3)CC2)c2c(C3CCC3)nn(C3CCCCC3)c2n1 [Compound 418, 3-cyclobutyl-1-cyclohexyl-N-(methanesulfonyl)-4-[4-(morpholin-4-yl)piperidin-1-yl]-1H-pyrazolo[3,4-b]pyridine-6-carboxamide]",512.9,221,321.3,321,196.6667,19.2,
"CN(C)S(=O)(=O)NC(=O)c1cc(N2CCC(N3CCOCC3)CC2)c2c(C3CCC3)nn(C3CCCCC3)c2n1 [Compound 420, 3-cyclobutyl-1-cyclohexyl-N-(dimethylsulfamoyl)-4-[4-(morpholin-4-yl)piperidin-1-yl]-1H-pyrazolo[3,4-b]pyridine-6-carboxamide]",486.65,209,283.1,472,223.3333,,
"CC(C)Oc1nn(C2CCCCC2)c2nc(C(=O)NS(C)(=O)=O)cc(-c3ccc(C(=O)N4CCN(C)CC4)cc3)c12 [Compound 422, 1-cyclohexyl-N-(methanesulfonyl)-4-[4-(4-methylpiperazine-1-carbonyl)phenyl]-3-[(propan-2-yl)oxy]-1H-pyrazolo[3,4-b]pyridine-6-carboxamide]",434.33,204,222.8,318,320,,
"CC(C)Oc1nn(C2CCCCC2)c2nc(C(=O)NS(=O)(=O)N(C)C)cc(-c3ccc(C(=O)N4CCN(C)CC4)cc3)c12 [Compound 423, 1-cyclohexyl-N-(dimethylsulfamoyl)-4-[4-(4-methylpiperazine-1-carbonyl)phenyl]-3-[(propan-2-yl)oxy]-1H-pyrazolo[3,4-b]pyridine-6-carboxamide]",376.85,109,175.55,140,365,39.8,
"CN(C)S(=O)(=O)NC(=O)c1cc(N2CCC(CN3CCOCC3)CC2)c2c(C3CCC3)nn(C3CCCCC3)c2n1 [Compound 424, 3-cyclobutyl-1-cyclohexyl-N-(dimethylsulfamoyl)-4-{4-[(morpholin-4-yl)methyl]piperidin-1-yl}-1H-pyrazolo[3,4-b]pyridine-6-carboxamide]",453.88,92.2,249.25,244,,,462.0976
"O=C(NS(=O)(=O)C1CCOC1)c1cc(N2CCC(N3CCOCC3)CC2)c2c(C3CCC3)nn(-c3ccc(F)cc3)c2n1 (centres unmarked) [Compound 429, 3-cyclobutyl-1-(4-fluorophenyl)-4-[4-(morpholin-4-yl)piperidin-1-yl]-N-(oxolane-3-sulfonyl)-1H-pyrazolo[3,4-b]pyridine-6-carboxamide]",422.8,205,252.1,378,180,83.8,
